Source: ChEMBL document CHEMBL5223099, “Covalent cannabinoid receptor ligands - structural insight and selectivity challenges” (RSC Med Chem, 2022)

Assays:
Cannabinoid receptor 1 [1] = molecular target: Cannabinoid receptor 1 (Rattus norvegicus, UniProt P20272); assay: Antagonist activity at rat CB1R expressed in CHO cells assessed as inhibition of forskolin stimulated cyclic AMP production; assay type: cell-based
Cannabinoid receptor 1 [2] = molecular target: T1, Cannabinoid receptor 1 (Homo sapiens, UniProt P21554); assay: Displacement of [3H]- CP55940 from human CB1R expressed in HEK293F cells assessed as inhibition constant incubated for 1 hr by scintillation counter analysis; assay type: cell-based; settings: filed as antagonist
T1 sequence (P21554 whole entry): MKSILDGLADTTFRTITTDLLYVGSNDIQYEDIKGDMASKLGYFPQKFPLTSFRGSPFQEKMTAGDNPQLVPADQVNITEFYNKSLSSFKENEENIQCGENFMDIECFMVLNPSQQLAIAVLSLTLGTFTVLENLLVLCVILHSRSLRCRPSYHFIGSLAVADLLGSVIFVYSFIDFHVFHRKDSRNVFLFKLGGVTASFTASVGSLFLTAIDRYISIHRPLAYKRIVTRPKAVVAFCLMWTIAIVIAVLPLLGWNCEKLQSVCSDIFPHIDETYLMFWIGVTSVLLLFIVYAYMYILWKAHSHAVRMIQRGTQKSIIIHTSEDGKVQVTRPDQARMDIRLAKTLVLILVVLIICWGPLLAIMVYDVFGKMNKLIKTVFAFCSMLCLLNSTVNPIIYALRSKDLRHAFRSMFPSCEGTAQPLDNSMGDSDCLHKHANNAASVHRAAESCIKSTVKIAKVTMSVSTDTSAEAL

Cannabinoid receptor 1 [3] = molecular target: T1, Cannabinoid receptor 1; assay: Binding affinity to CB1R (unknown origin) assessed as inhibition constant; settings: filed as antagonist
Cannabinoid receptor 2 [4] = molecular target: T2, Cannabinoid receptor 2 (Homo sapiens, UniProt P34972); assay: Binding affinity to wild type human CB2R expressed in HEK293 cells assessed as inhibition constant; assay type: cell-based
T2 sequence (P34972 whole entry): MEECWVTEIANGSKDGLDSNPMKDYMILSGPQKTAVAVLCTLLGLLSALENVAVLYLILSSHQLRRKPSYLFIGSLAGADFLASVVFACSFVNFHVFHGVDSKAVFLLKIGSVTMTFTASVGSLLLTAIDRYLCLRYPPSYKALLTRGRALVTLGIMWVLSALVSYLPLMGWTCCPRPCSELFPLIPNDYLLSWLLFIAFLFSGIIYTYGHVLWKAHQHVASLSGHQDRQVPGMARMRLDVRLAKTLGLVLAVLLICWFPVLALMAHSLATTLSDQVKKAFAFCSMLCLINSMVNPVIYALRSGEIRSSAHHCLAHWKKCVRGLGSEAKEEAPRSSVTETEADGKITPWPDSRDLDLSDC

Cannabinoid receptor 2 [5] = molecular target: T2, Cannabinoid receptor 2; assay: Antagonist activity at human CB2R assessed as beta arrestin-2 recruitment by measuring inhibition constant
Cannabinoid receptor 1 [6] = molecular target: T1, Cannabinoid receptor 1; assay: Antagonist activity at human CB1R assessed as beta arrestin-2 recruitment by measuring inhibition constant

Cannabinoid receptor 1 (Rattus norvegicus, UniProt P20272), sequence (P20272 whole entry): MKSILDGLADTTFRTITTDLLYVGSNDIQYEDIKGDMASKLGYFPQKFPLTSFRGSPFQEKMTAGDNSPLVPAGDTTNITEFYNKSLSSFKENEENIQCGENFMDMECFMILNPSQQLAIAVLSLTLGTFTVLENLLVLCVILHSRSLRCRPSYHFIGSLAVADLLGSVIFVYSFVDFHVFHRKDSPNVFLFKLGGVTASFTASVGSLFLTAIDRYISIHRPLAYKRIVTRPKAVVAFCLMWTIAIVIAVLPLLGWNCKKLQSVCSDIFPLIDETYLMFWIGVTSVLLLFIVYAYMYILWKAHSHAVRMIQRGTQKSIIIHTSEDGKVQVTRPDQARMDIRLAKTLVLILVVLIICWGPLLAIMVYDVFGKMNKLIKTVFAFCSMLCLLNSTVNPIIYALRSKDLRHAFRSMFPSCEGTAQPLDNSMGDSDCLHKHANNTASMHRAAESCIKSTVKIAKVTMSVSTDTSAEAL

Work on CCCCCCC(C)(C)c1cc(OC)c([C@H]2C=C(CO)[C@H]3C[C@@H]2C3(C)C)c(OC)c1 yielded a Ki (Cannabinoid receptor 1 [1]) greater than 10000 nM.

For Cc1c(C(=O)NN2CCCCC2)nn(-c2ccc(Cl)cc2Cl)c1-c1ccc(C#CCCO[N+](=O)[O-])cc1, the K (Cannabinoid receptor 1 [2]) was 5.1 nM.

Cc1c(C(=O)NC23CC4CC(CC(C4)C2)C3)nn(CCCCSC#N)c1-c1ccccc1 showed a K (Cannabinoid receptor 1 [3]) of 5.76 nM.

With CCCCCn1nc(C(=O)NC23CC4CC(CC(C4)C2)C3)c(C)c1-c1ccccc1 the Ki (Cannabinoid receptor 2 [4]) was 0.63 nM.

Compound Cc1c(C(=O)NC23CC4CC(CC(C4)C2)C3)nn(CCCCCO)c1-c1ccccc1 has a Ki (Cannabinoid receptor 2 [5]) of 0.075 nM and a Ki (Cannabinoid receptor 1 [6]) of 13 nM.
